For six compounds, zone of inhibition and MIC results are on record in patent publication US4232148A, “6-Deoxyneamines” (The Upjohn Company, priority 1979, dated 1980).

What all share (type): cell-based
For one assay, the system named is B. cereus UC 3145. Kind of assay: standard disc plate assay, zone of inhibition. The note with it: Bacillus cereus, UC3145, read-out: Zones of Inhibition, 1 mg/ml; 12.5 mm paper discs. An excerpt:
(§1) The compounds of formulas (V, VII, IX, XI, XIV, XVI, and XIX) are active as antibacterials and can be used in various environments to erradicate or control susceptible microorganisms. Tables I and II set forth the in vitro antibacterial test results for representative compounds of the present invention. The results were obtained with a standard disc plate assay using 12.5 mm paper discs.

A further assay relates to S. schottmeulleri UC 126. The assay is described as follows: standard disc plate assay, zone of inhibition. The note with it: 12.5 mm paper discs, read-out: Zones of Inhibition; for zone of inhibition at 1000 µg/mL: 1 mg/ml.
Description: as §1

The next assay relates to E. coli UC 51. Kind of assay: standard disc plate assay, zone of inhibition. The note with it: Escherichia coli, 12.5 mm paper discs.
Description: as §1

The test system of another assay is S. lutea UC 130. The assay is described as follows: standard disc plate assay, zone of inhibition. The note with it: Micrococcus luteus, UC130, read-out: Zones of Inhibition.
Description: as §1

Another assay has as its system S. aureus UC 76. Kind of assay: standard microplate test in BHI Agar, MIC. The note with it: Staphylococcus aureus, UC76, 20 h, read-out: Minimal Inhibitory Concentration. As for the experimental part:
(§2) The compounds VII, XI, XVβ, XVα and XVI were tested in a standard microplate test in BHI (Brain Heart Infusion) Agar at a concentration of 1 mg./ml. and dilutions thereof at 37° incubation temperature. The end points are read at 20 hours. BHI Agar is supplied by Difco Laboratories, Detroit, Mich., U.S.A. and has the following compositions:
(§3) Calf brains, infusion from: 200 gm.
(§4) Beef heart, infusion from: 250 gm.
(§5) Bacto Proteose-peptone, Difco: 10 gm.
(§6) Bacto-Dextrose, Difco: 1 gm.
(§7) Disodium phosphate: 2.5 gm.

The subject of a further assay is S. pyogenes UC 152. Kind of assay: standard microplate test in BHI Agar, MIC. To be noted: Streptococcus pyogenes, UC152, 20 h. Here is the method: as §2, §3, §4, §5, §6, §7
In the next assay the test system is S. typhi UC 215. The assay is described as follows: standard microplate test in BHI Agar, MIC. To be noted: Salmonella enterica, 20 h, read-out: Minimal Inhibitory Concentration. As for the experimental part: as §2, §3, §4, §5, §6, §7
The test system of a further assay is K. pneumoniae UC 58. Kind of assay: standard microplate test in BHI Agar, MIC. To be noted: Klebsiella pneumoniae, UC58, 20 h. Here is the method:
as §2, §3, §4, §5, §6, §7

The test system of a further assay is D. pneumoniae UC 41. The assay is described as follows: standard microplate test in BHI Agar, MIC. The note with it: Streptococcus pneumoniae, UC41, 37°, 20 hours, read-out: Minimal Inhibitory Concentration. Here is the method:
as §2, §3, §4, §5, §6, §7

Another assay deals with S. flexneri UC 143. Kind of assay: standard microplate test in BHI Agar, MIC. To be noted: Shigella flexneri, UC143, 37°, 20 hours. Here is the method: as §2, §3, §4, §5, §6, §7
The test system of another assay is S. schottmuelleri UC 126. Kind of assay: standard microplate test in BHI Agar, MIC. The note with it: 37°, 20 hours. As for the experimental part:
as §2, §3, §4, §5, §6, §7

The next assay has as its system P. morganii UC 3186. The assay is described as follows: standard microplate test in BHI Agar, MIC. The note with it: Morganella morganii, UC3186, 20 h. As for the experimental part:
as §2, §3, §4, §5, §6, §7

The test system of the next assay is S. faecalis UC 694. The assay is described as follows: standard microplate test in BHI Agar, MIC. To be noted: Enterococcus faecalis. Here is the method: as §2, §3, §4, §5, §6, §7
In a further assay the test system is E. coli UC 311. The assay is described as follows: standard microplate test in BHI Agar, MIC. To be noted: Escherichia coli, UC311, 20 h, read-out: Minimal Inhibitory Concentration. As for the experimental part:
as §2, §3, §4, §5, §6, §7

A further assay deals with P. vulgaris UC 93. Kind of assay: standard microplate test in BHI Agar, MIC. To be noted: Proteus vulgaris, UC93, 37°, 20 hours. Here is the method:
as §2, §3, §4, §5, §6, §7

The next assay deals with S. marcescens UC 131. The assay is described as follows: standard microplate test in BHI Agar, MIC. To be noted: Serratia marcescens, UC131, 37°, 20 hours. As for the experimental part:
as §2, §3, §4, §5, §6, §7

The next assay concerns P. mirabilis UC 6671. Kind of assay: standard microplate test in BHI Agar, MIC. To be noted: Proteus mirabilis, UC6671, 37°, 20 hours. Here is the method:
as §2, §3, §4, §5, §6, §7

Another assay concerns S. pneumoniae I UC 41. Kind of assay: standard microplate test in BHI Agar, MIC. To be noted: Streptococcus pneumoniae, UC41, 37°, 20 hours, read-out: Minimum Inhibitory Concentration. As for the experimental part:
as §2, §3, §4, §5, §6, §7

The next assay concerns E. coli UC 45. The assay is described as follows: standard microplate test in BHI Agar, MIC. The note with it: Escherichia coli, UC45, 37°, 20 hours, read-out: Minimum Inhibitory Concentration. Here is the method: as §2, §3, §4, §5, §6, §7
The test system of a further assay is S. aureus UC 80. The assay is described as follows: standard disc plate assay, zone of inhibition. To be noted: Staphylococcus aureus, UC80, read-out: Zones of Inhibition, 1 mg/ml; 12.5 mm paper discs.
Description: as §1

The mark [1] stands for this setting: read-out: Minimal Inhibitory Concentration.
The mark [2] stands for this setting: UC694, 20 h, read-out: Minimal Inhibitory Concentration.
Where [3] appears, read: read-out: Minimum Inhibitory Concentration.

In brackets after ≈: the same amount, converted by molar mass. Read-outs that look alike come from different tables or passages of the source.

With `NC[C@H]1O[C@H](O[C@@H]2[C@@H](N)C[C@@H](N)C[C@H]2OC2O[C@H](CO)[C@@H](O)[C@H]2O)[C@H](N)[C@@H](O)[C@@H]1O` (single isomer, unassigned) [Compound XVα, O-2,6-Diamino-2,6-dideoxy-α-D-glucopyranosyl (1→4)-O-[α-D-ribofuranosyl(1→5)]-2,6-dideoxy-D-streptamine], the zone of inhibition at 1000 µg/mL in the assay on B. cereus UC 3145 is 20 mm; with S. schottmeulleri UC 126, 20 mm; in the assay on E. coli UC 51 (UC51, read-out: Zones of Inhibition, 1 mg/ml), 24 mm; with S. lutea UC 130 it was 16 mm. Also, the MIC came out at 125 mg/L (≈ 285 µM) in the assay with S. aureus UC 76; 31.2 mg/L (≈ 71.2 µM) with S. pyogenes UC 152 (setting [1]); 62.5 mg/L (≈ 143 µM) in the assay on S. typhi UC 215; 15.6 mg/L (≈ 35.6 µM) in the assay on K. pneumoniae UC 58 (setting [1]); 125 mg/L (≈ 285 µM) in the assay with D. pneumoniae UC 41; 500 mg/L (≈ 1140 µM) in the assay with S. flexneri UC 143 (setting [1]). Further, the MIC was 125 mg/L (≈ 285 µM) with S. schottmuelleri UC 126 (setting [1]), 125 mg/L (≈ 285 µM) with P. morganii UC 3186 (setting [1]) and above 500 mg/L with S. faecalis UC 694 (setting [2]).
Consider `NC[C@H]1O[C@H](O[C@@H]2[C@@H](N)C[C@@H](N)C[C@H]2OC2O[C@H](CO)[C@@H](O)[C@H]2O)[C@H](N)[C@@H](O)[C@@H]1O` (single isomer, unassigned) [Compound XVβ, O-2,6-Diamino-2,6-dideoxy-α-D-glucopyranosyl (1→4)-O-[β-D-ribofuranosyl(1→5)]-2,6-dideoxy-D-streptamine], for which the zone of inhibition at 100 µg/mL with S. schottmeulleri UC 126 (0.1 mg/ml) worked out at 16 mm; in the assay on E. coli UC 51 (UC51, 0.1 mg/ml, read-out: Zones of Inhibition) it was 20 mm. For the same compound, the zone of inhibition at 1000 µg/mL with S. schottmeulleri UC 126 amounted to 24 mm. Moreover, the MIC with S. aureus UC 76 came to 31.2 mg/L (≈ 71.2 µM); with E. coli UC 311, 31.2 mg/L (≈ 71.2 µM); in the assay with P. vulgaris UC 93 (setting [1]), 31.2 mg/L (≈ 71.2 µM); in the assay on D. pneumoniae UC 41, 15.6 mg/L (≈ 35.6 µM); in the assay with S. marcescens UC 131 (setting [1]), 62.5 mg/L (≈ 143 µM); with S. flexneri UC 143 (setting [1]), 31.2 mg/L (≈ 71.2 µM). Besides, the MIC with S. schottmuelleri UC 126 (setting [1]) came to 7.8 mg/L (≈ 17.8 µM); with P. mirabilis UC 6671 (setting [1]) it was 125 mg/L (≈ 285 µM); with S. faecalis UC 694 (UC694, BHI Agar, 37°, 20 hours, read-out: Minimal Inhibitory Concentration) it was 500 mg/L (≈ 1140 µM).
As for `NC[C@H]1O[C@H](O[C@@H]2[C@@H](N)C[C@@H](N)C[C@@H]2O)[C@H](N)[C@@H](O)[C@@H]1O` [6-Deoxy-5-epineamine], the zone of inhibition at 1000 µg/mL in the assay with S. schottmeulleri UC 126 worked out at 21 mm.
With `C[C@@]1(O)C[C@H](N)C[C@H](N)[C@H]1O[C@H]1O[C@H](CN)[C@@H](O)[C@H](O)[C@H]1N` [6-Deoxy-5-methylneamine, 6-Deoxy-5-methyl-neamine], the zone of inhibition at 1000 µg/mL with S. schottmeulleri UC 126 came to 21 mm. In addition, the MIC in the assay with S. pneumoniae I UC 41 came out at 62.5 mg/L (≈ 195 µM); in the assay with S. pyogenes UC 152 (setting [3]), 7.8 mg/L (≈ 24.3 µM); in the assay with K. pneumoniae UC 58 (setting [3]), 15.6 mg/L (≈ 48.7 µM); in the assay on E. coli UC 45, 125 mg/L (≈ 390 µM); with P. vulgaris UC 93 (setting [3]) it was 62.5 mg/L (≈ 195 µM); in the assay on S. marcescens UC 131 (setting [3]), 125 mg/L (≈ 390 µM). For the same compound, the MIC in the assay on S. flexneri UC 143 (setting [3]) was 125 mg/L (≈ 390 µM); with S. schottmuelleri UC 126 (setting [3]) it was 62.5 mg/L (≈ 195 µM); in the assay with P. morganii UC 3186 (setting [3]), 125 mg/L (≈ 390 µM); in the assay with P. mirabilis UC 6671 (setting [3]), 250 mg/L (≈ 780 µM); in the assay on S. faecalis UC 694 (UC694, 20 h, read-out: Minimum Inhibitory Concentration), above 500 mg/L.
As for `NC[C@H]1O[C@H](O[C@H]2[C@H](O)C[C@H](N)C[C@@H]2N)[C@H](N)[C@@H](O)[C@@H]1O` [6-deoxyneamine, 6-Deoxyneamine], the MIC in the assay on S. pneumoniae I UC 41 was 62.5 mg/L (≈ 204 µM); in the assay with E. coli UC 45 it was 31.2 mg/L (≈ 102 µM); in the assay with P. vulgaris UC 93 (setting [3]) it was 31.2 mg/L (≈ 102 µM); with S. flexneri UC 143 (setting [3]), 62.5 mg/L (≈ 204 µM); with S. schottmuelleri UC 126 (setting [3]), 31.2 mg/L (≈ 102 µM); in the assay with P. morganii UC 3186 (setting [3]), 62.5 mg/L (≈ 204 µM). Besides, the MIC in the assay with P. mirabilis UC 6671 (setting [3]) was determined as 62.5 mg/L (≈ 204 µM).
For `NC[C@H]1O[C@H](O[C@@H]2[C@@H](N)C[C@@H](N)C[C@H]2O[C@@H]2C[C@@H](N)[C@H](O)[C@@H](CO)O2)[C@H](N)[C@@H](O)[C@@H]1O` [Compound XVI, O-2,6-Diamino-2,6-dideoxy-α-D-glucopyranosyl (1→4)-O-[3-amino-2,3-dideoxy-α-D-arabinohexopyranosyl(1→5)-2,6-dideoxy-D-streptamine]], the figures for the zone of inhibition at 1000 µg/mL in the assay on S. aureus UC 80 and in the assay on S. schottmeulleri UC 126 were 21 mm and 15 mm, respectively. Moreover, the MIC in the assay with S. flexneri UC 143 (setting [1]), in the assay on S. schottmuelleri UC 126 (setting [1]) and in the assay on S. faecalis UC 694 (setting [2]) was above 500 mg/L throughout.
